Like-named read-outs stand apart in the source and are kept apart here.
Legend:
[1] = test system: mitochondrial respiratory chain complex III; assay type: biochemical, rat
[2] = test system: Caenorhabditis elegans (Bristol N2); assay: C. elegans larval development and growth assay
[3] = test system: HepG2 cells; assay: ROS-Glo hydrogen peroxide (ROS) assay; assay type: cell-based, human; conditions: Homo sapiens, HepG2, 2 h, read-out: ROS (HepG2) EC50
[4] = test system: p53 (p53-bla HCT-116 cells); assay: p53 β-lactamase reporter gene assay; assay type: cell-based, human; conditions: Homo sapiens; 16 h incubation; mean±SD of three experiments
[5] = test system: mitochondrial respiratory chain complex I; assay type: biochemical, rat
[6] = test system: rat primary hepatocytes
[7] = test system: HepG2 cells; assay: cells; conditions: Homo sapiens
[8] = test system: rat primary hepatocytes; assay: MMP assay in rat primary hepatocytes; conditions: Rattus norvegicus, Hepatocyte
[9] = test system: HepG2 cells; conditions: cited from earlier work
[10] = test system: hNSC; assay: MMP assay in human neural stem cells (hNSC); assay type: cell-based; conditions: Homo sapiens, Neural stem cell, 1 h, read-out: hNSC IC50 (MMP)
[11] = test system: Nrf2/ARE (ARE-bla HepG2 cells); assay: ARE β-lactamase reporter gene assay; assay type: cell-based, human; conditions: 16 h incubation; mean±SD of three experiments
[12] = test system: mitochondrial respiratory chain complex IV; assay type: biochemical, rat
[13] = test system: Caenorhabditis elegans strain PE255; assay: In vivo C. elegans ATP status assay
[14] = test system: mitochondrial respiratory chain complex V; assay type: biochemical, rat; conditions: at 20μM
[15] = test system: Caenorhabditis elegans (Bristol N2); conditions: Bristol N2 (wild type), Caenorhabditis elegans, in vivo
[16] = test system: HeLa cells expressing YFP-Parkin; assay: Parkin translocation assay; assay type: cell-based, human
[17] = test system: isolated rat liver mitochondria; assay: Oxygen consumption, Clark-type oxygen electrode; assay type: biochemical
[18] = target: T1, mitochondrial respiratory chain complex II (Rattus norvegicus, UniProt P21913+Q641Z9+Q6PCT8+Q920L2); assay: Respiratory chain complex II activity; assay type: biochemical; conditions: at 0.8μM; mean±SD of three experiments
T1 construct: Submitochondrial particles were prepared by subjecting the intact rat mitochondria, isolated as described above, to three successive freeze–thaw cycles; from tissue; host or cells: rat liver mitochondria (submitochondrial particles)

[19] = test system: HepG2 cells; assay: Intracellular ATP content (cell viability) assay; assay type: cell-based, human; conditions: Homo sapiens, HepG2, 40 h

T1 sequence (Q920L2 35-656): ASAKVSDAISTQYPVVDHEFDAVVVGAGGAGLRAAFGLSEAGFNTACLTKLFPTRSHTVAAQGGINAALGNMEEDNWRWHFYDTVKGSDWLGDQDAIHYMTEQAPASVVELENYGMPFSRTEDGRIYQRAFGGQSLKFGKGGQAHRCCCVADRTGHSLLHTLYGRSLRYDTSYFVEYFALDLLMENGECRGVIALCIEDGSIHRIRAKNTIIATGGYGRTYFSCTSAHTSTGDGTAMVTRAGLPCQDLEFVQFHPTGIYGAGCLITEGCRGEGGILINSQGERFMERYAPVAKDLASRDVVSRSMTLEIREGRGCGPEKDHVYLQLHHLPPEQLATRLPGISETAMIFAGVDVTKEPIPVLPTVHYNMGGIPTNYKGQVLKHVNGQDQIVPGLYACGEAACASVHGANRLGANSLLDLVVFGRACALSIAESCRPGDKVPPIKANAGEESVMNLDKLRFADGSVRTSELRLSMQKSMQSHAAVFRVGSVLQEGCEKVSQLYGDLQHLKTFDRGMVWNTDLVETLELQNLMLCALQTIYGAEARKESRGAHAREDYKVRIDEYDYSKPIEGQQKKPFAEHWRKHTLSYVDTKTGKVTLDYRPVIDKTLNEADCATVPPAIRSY
T1 sequence (P21913 31-282): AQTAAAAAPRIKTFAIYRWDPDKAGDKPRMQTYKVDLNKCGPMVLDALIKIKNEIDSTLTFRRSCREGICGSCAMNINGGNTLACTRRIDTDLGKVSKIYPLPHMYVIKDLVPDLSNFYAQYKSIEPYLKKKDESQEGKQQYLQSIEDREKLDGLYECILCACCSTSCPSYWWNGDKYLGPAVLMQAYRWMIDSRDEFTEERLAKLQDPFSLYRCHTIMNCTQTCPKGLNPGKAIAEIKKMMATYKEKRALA
T1 sequence (Q641Z9 1-169): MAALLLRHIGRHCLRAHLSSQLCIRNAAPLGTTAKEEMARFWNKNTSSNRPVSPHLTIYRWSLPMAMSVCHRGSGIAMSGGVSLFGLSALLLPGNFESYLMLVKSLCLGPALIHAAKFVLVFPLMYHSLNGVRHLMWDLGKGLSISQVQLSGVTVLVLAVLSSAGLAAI
T1 sequence (Q6PCT8 57-159): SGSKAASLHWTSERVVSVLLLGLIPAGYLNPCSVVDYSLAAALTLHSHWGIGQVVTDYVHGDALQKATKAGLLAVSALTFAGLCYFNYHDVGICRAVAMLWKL

In the case of O=C(Nc1ccc(Oc2ccc(Cl)cc2)c(Cl)c1)c1cc(I)cc(I)c1O [Rafoxanide, reference compound], the “Complex III % inhibition (activity call)” value [1] is reported as “Inactive”, the “EXT: mean difference in nematode size relative to plate controls” value ([2]; 0.5 µM) is reported as -0.03197 and the “EXT: mean difference in nematode size relative to plate controls” value ([2]; 1 µM) is reported as 0.04544. The “EXT: mean difference in nematode size relative to plate controls” value ([2]; 5 µM) was 0.3092, the “EXT: mean difference in nematode size relative to plate controls” value ([2]; 10 µM) was 0.3633 and the “EXT: mean difference in nematode size relative to plate controls” value ([2]; 25 µM) was 1.242. The “EXT: mean difference in nematode size relative to plate controls” value ([2]; 50 µM) was 1.69, the “EXT: mean difference in nematode size relative to plate controls” value ([2]; 75 µM) was 0.8224 and the “EXT: mean difference in nematode size relative to plate controls” value ([2]; 100 µM) was 0.8924. For the same compound, the minimal effective concentration ([2]; Caenorhabditis elegans, read-out: LEC EXT: lowest effect concentration for extinction, a measure of nematode size) was 2.5 µM, the EC50 [3] was 26.5 µM and the EC50 [4] was 9.11 ± 3.81 µM. For the same compound, the “Complex I % inhibition (activity call)” value [5] was “Inactive”, the “MMP assays efficacy (%) Rat Hepatocytes” value [6] was -91±18% and the “Rat hepatocytes (efficacy) (MMP)” value [6] was 4.50±0.81 ( −72.1±10.3 ) %. The IC50 ([7]; HepG2, 1 h, read-out: HepG2 IC50 Galactose (MMP)) was 18.6 µM, the IC50 ([7]; HepG2, 1 h, read-out: HepG2 IC50 Glucose (MMP)) was 20.9 µM and the IC50 ([7]; HepG2, read-out: MMP assays IC50 (µM) HepG2) was 1.23 µM. For the same compound, the Emax ([7]; HepG2, read-out: MMP assays efficacy (%) HepG2) was 119%, the IC50 ([8]; 1 h, read-out: Rat hepatocytes IC50 (MMP)) was 4.5 µM and the IC50 ([8]; read-out: MMP assays IC50 (µM) Rat Hepatocytes) was 1.86 ± 0.83 µM. The “MMP assays efficacy (%) qHTS-HepG2” value [9] was -110±8%, the IC50 ([9]; read-out: MMP assays IC50 (µM), qHTS-HepG2) was 3.27 ± 1.76 µM and the IC50 [10] was 10.3 µM. For the same compound, the “ARE (HepG2) EC50” value [11] was “Inactive”, the “Complex IV % inhibition (activity call)” value [12] was “Inactive” and the “LUM: mean difference in luminescence (ATP content) relative to plate controls” value ([13]; 0.5 µM) was 0.09174. For the same compound, the “LUM: mean difference in luminescence (ATP content) relative to plate controls” value ([13]; 1 µM) was -0.0514, the “LUM: mean difference in luminescence (ATP content) relative to plate controls” value ([13]; 5 µM) was 0.4289 and the “LUM: mean difference in luminescence (ATP content) relative to plate controls” value ([13]; 10 µM) was 0.2032. For the same compound, the “LUM: mean difference in luminescence (ATP content) relative to plate controls” value ([13]; 25 µM) was 0.5878, the “LUM: mean difference in luminescence (ATP content) relative to plate controls” value ([13]; 50 µM) was 0.4453 and the “LUM: mean difference in luminescence (ATP content) relative to plate controls” value ([13]; 75 µM) was 0.5488. The “LUM: mean difference in luminescence (ATP content) relative to plate controls” value ([13]; 100 µM) was 0.6986, the minimal effective concentration ([13]; Caenorhabditis elegans, read-out: LEC LUM: lowest effect concentration for luminescence, a measure of nematode ATP content) was 75 µM and the “Complex V % inhibition” value [14] was 40.1±1.87 at 20μM %. For the same compound, the “LEC (lowest effect concentration), larval growth assay” value [15] was ≤ 10 µM, the Parkin recruitment [16] was “Active” and the “Potential Mechanism” value [17] was “Uncoupler + inhibitor”. For the same compound, the “I-ADP, % of control (O2 consumption rate)” value ([17]; 0.0064 µM) was 93 (51.1) % of control, the “I-sub, % of control (O2 consumption rate)” value ([17]; 0.0064 µM) was 94 (12.3) % of control and the “II-ADP, % of control (O2 consumption rate)” value (“II-ADP, % of control” for short) ([17]; 0.0064 µM) was 100 (88.4) % of control. For the same compound, the “II-sub, % of control (O2 consumption rate)” value (“II-sub, % of control” below) ([17]; 0.0064 µM) was 99 (24.3) % of control, the “I-ADP, % of control (O2 consumption rate)” value ([17]; 0.032 µM) was 90 (41.4) % of control and the “I-sub, % of control (O2 consumption rate)” value ([17]; 0.032 µM) was 118 (13.2) % of control. The “II-ADP, % of control” value ([17]; 0.032 µM) was 70 (52.6) % of control, the “II-sub, % of control” value ([17]; 0.032 µM) was 97 (20.0) % of control and the “I-ADP, % of control (O2 consumption rate)” value ([17]; 0.16 µM) was 105 (48.3) % of control. For the same compound, the “I-sub, % of control (O2 consumption rate)” value ([17]; 0.16 µM) was 163 (18.3) % of control, the “II-ADP, % of control” value ([17]; 0.16 µM) was 63 (47.1) % of control and the “II-sub, % of control” value ([17]; 0.16 µM) was 116 (23.9) % of control. For the same compound, the “I-ADP, % of control (O2 consumption rate)” value ([17]; 0.8 µM) was 121 (55.6) % of control, the “I-sub, % of control (O2 consumption rate)” value ([17]; 0.8 µM) was 379 (42.5) % of control and the “II-ADP, % of control” value ([17]; 0.8 µM) was 45 (33.6) % of control. The “II-sub, % of control” value ([17]; 0.8 µM) was 137 (28.2) % of control, the “I-ADP, % of control (O2 consumption rate)” value ([17]; 4 µM) was 95 (43.7) % of control and the “I-sub, % of control (O2 consumption rate)” value ([17]; 4 µM) was 399 (44.7) % of control. For the same compound, the “II-ADP, % of control” value ([17]; 4 µM) was 23 (17.4) % of control, the “II-sub, % of control” value ([17]; 4 µM) was 88 (18.1) % of control and the “I-ADP, % of control (O2 consumption rate)” value ([17]; 20 µM) was 15 (7.1) % of control. The “I-sub, % of control (O2 consumption rate)” value ([17]; 20 µM) was 116 (13.0) % of control, the “II-ADP, % of control” value ([17]; 20 µM) was 15 (11.3) % of control and the “II-sub, % of control” value ([17]; 20 µM) was 55 (11.4) % of control. It also gave an inhibition at 0.8 µM [18] of 44.4 ± 6.56%, an IC50 ([19]; read-out: ATP (HepG2, galactose) IC50) of 54.1 µM and an IC50 ([19]; read-out: ATP (HepG2, glucose) IC50) of 46.7 µM.
